Source: PubChem BioAssay (NCI)
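The concentration for 50% growth inhibition is given as GI50. The concentration for full growth arrest is given as TGI.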

What was measured:
Assay in all cases: NCI tumour cell line growth inhibition, 384-well format
[1] = system: SNB-19 CNS
[2] = system: U251 glioblastoma
[3] = system: SW-620 colon
[4] = system: SNB-75 CNS
[5] = system: PC-3 prostate
[6] = system: KM12 colon
[7] = system: OVCAR-3 ovarian
[8] = system: UACC-62 melanoma
[9] = system: UO-31 renal
[10] = system: A498 renal
[11] = system: UACC-257 melanoma
[12] = system: HCC-2998 colon
[13] = system: SF-295 CNS
[14] = system: NCI-H226 lung
[15] = system: NCI-H522 lung
[16] = system: NCI-H23 lung
[17] = system: HOP-62 NSCLC
[18] = system: NCI-H460 NSCLC
[19] = system: BT-549 breast
[20] = system: OVCAR-5 ovarian
[21] = system: RPMI-8226 leukemia
[22] = system: RXF 393 renal
[23] = system: MDA-MB-435 melanoma
[24] = system: MDA-MB-231 breast
[25] = system: ACHN renal
[26] = system: COLO 205 colon
[27] = system: M14 melanoma
[28] = system: OVCAR-8 ovarian
[29] = system: CAKI-1 renal
[30] = system: MDA-MB-468 breast
[31] = system: HCT-15 colon
[32] = system: HS 578T breast
[33] = system: TK-10 renal
[34] = system: MCF7 breast
[35] = system: HCT-116 colon
[36] = system: K-562 leukemia
[37] = system: SN12C renal
[38] = system: CCRF-CEM leukemia
[39] = system: NCI-H322M lung
[40] = system: MOLT-4 leukemia
[41] = system: A549 NSCLC
[42] = system: T-47D breast
[43] = system: DU-145 prostate
[44] = system: SK-OV-3 ovarian
[45] = system: HT29 colon
[46] = system: OVCAR-4 ovarian
[47] = system: NCI/ADR-RES ovarian
[48] = system: 786-0 renal
[49] = system: SK-MEL-5 melanoma
[50] = system: SF-268 CNS
[51] = system: SF-539 CNS
[52] = system: MALME-3M melanoma
[53] = system: SK-MEL-28 melanoma
[54] = system: HL-60(TB) leukemia
[55] = system: IGROV1 ovarian
[56] = system: HOP-92 NSCLC
[57] = system: LOX IMVI melanoma
[58] = system: EKVX NSCLC
[59] = system: SK-MEL-2 melanoma
[60] = system: SR leukemia

Structure (SMILES): COc1cc2nc(-c3cc(F)ccc3O)nc(N[C@@H]3CNC[C@H]3C(C)(C)O)c2cc1OC
- GI50 [1]: 1790 nM
- TGI [1]: 3210 nM
- GI50 [2]: 1860 nM
- TGI [2]: 3280 nM
- GI50 [3]: 1820 nM
- TGI [3]: 3240 nM
- GI50 [4]: 1250 nM
- TGI [4]: 2510 nM
- GI50 [5]: 1560 nM
- TGI [5]: 2920 nM
- GI50 [6]: 1340 nM
- TGI [6]: 2640 nM
- GI50 [7]: 1820 nM
- TGI [7]: 3230 nM
- GI50 [8]: 1620 nM
- TGI [8]: 2990 nM
- GI50 [9]: 1810 nM
- TGI [9]: 3220 nM
- GI50 [10]: 1650 nM
- TGI [10]: 3020 nM
- GI50 [11]: 1710 nM
- TGI [11]: 3100 nM
- GI50 [12]: 970 nM
- TGI [12]: 2170 nM
- GI50 [13]: 1880 nM
- TGI [13]: 3300 nM
- GI50 [14]: 1400 nM
- TGI [14]: 2760 nM
- GI50 [15]: 1040 nM
- TGI [15]: 2220 nM
- GI50 [16]: 1440 nM
- TGI [16]: 2770 nM
- GI50 [17]: 1220 nM
- TGI [17]: 2490 nM
- GI50 [18]: 1470 nM
- TGI [18]: 2890 nM
- GI50 [19]: 1310 nM
- TGI [19]: 2590 nM
- GI50 [20]: 1670 nM
- TGI [20]: 3110 nM
- GI50 [21]: 1830 nM
- TGI [21]: 3250 nM
- GI50 [22]: 1560 nM
- TGI [22]: 2910 nM
- GI50 [23]: 1950 nM
- TGI [23]: 3390 nM
- GI50 [24]: 1400 nM
- TGI [24]: 2700 nM
- GI50 [25]: 1750 nM
- TGI [25]: 3180 nM
- GI50 [26]: 1240 nM
- TGI [26]: 2520 nM
- GI50 [27]: 1830 nM
- TGI [27]: 3250 nM
- GI50 [28]: 1690 nM
- TGI [28]: 3090 nM
- GI50 [29]: 1350 nM
- TGI [29]: 2660 nM
- GI50 [30]: 1770 nM
- TGI [30]: 3170 nM
- GI50 [31]: 1910 nM
- TGI [31]: 3370 nM
- GI50 [32]: 1740 nM
- TGI [32]: 3130 nM
- GI50 [33]: 1630 nM
- TGI [33]: 3050 nM
- GI50 [34]: 1570 nM
- TGI [34]: 2950 nM
- GI50 [35]: 1110 nM
- TGI [35]: 2370 nM
- GI50 [36]: 1270 nM
- TGI [36]: 2550 nM
- GI50 [37]: 1480 nM
- TGI [37]: 2810 nM
- GI50 [38]: 1410 nM
- TGI [38]: 2730 nM
- GI50 [39]: 1630 nM
- TGI [39]: 3020 nM
- GI50 [40]: 1530 nM
- TGI [40]: 2870 nM
- GI50 [41]: 1510 nM
- TGI [41]: 2910 nM
- GI50 [42]: 2460 nM
- TGI [42]: 3940 nM
- GI50 [43]: 1570 nM
- TGI [43]: 2990 nM
- GI50 [44]: 1820 nM
- TGI [44]: 3240 nM
- GI50 [45]: 1650 nM
- TGI [45]: 3060 nM
- GI50 [46]: 2390 nM
- TGI [46]: 3880 nM
- GI50 [47]: 2240 nM
- TGI [47]: 4990 nM
- GI50 [48]: 1530 nM
- TGI [48]: 2870 nM
- GI50 [49]: 1500 nM
- TGI [49]: 2850 nM
- GI50 [50]: 434 nM
- TGI [50]: 1620 nM
- GI50 [51]: 1260 nM
- TGI [51]: 2540 nM
- GI50 [52]: 1600 nM
- TGI [52]: 2960 nM
- GI50 [53]: 2010 nM
- TGI [53]: 3440 nM
- GI50 [54]: 1820 nM
- TGI [54]: 3240 nM
- GI50 [55]: 507 nM
- TGI [55]: 1640 nM
- GI50 [56]: 1150 nM
- TGI [56]: 2380 nM
- GI50 [57]: 1390 nM
- TGI [57]: 2710 nM
- GI50 [58]: 1460 nM
- TGI [58]: 2790 nM

Structure (SMILES): C=CCN1CC(=O)N2[C@@H](Cc3ccc(O)cc3F)C(=O)N(Cc3cccc(N4CC(N5CCN(CC)CC5)C4)n3)C[C@@H]2N1C(=O)NCc1ccccc1
- GI50 [1]: 25 nM
- TGI [1]: 226 nM
- GI50 [2]: 23.6 nM
- TGI [2]: 88.8 nM
- GI50 [3]: 84.7 nM
- TGI [3]: > 100000 nM
- GI50 [5]: 27.8 nM
- TGI [5]: 91.1 nM
- GI50 [6]: 36.8 nM
- TGI [6]: 32300 nM
- GI50 [7]: 24.4 nM
- TGI [7]: 84.6 nM
- GI50 [8]: 21.4 nM
- TGI [8]: 67.5 nM
- GI50 [9]: 408 nM
- TGI [9]: 3690 nM
- GI50 [10]: 35.4 nM
- TGI [10]: 232 nM
- GI50 [11]: 50.2 nM
- TGI [11]: 333 nM
- GI50 [12]: 41.3 nM
- TGI [12]: 398 nM
- GI50 [13]: 79.8 nM
- TGI [13]: 528 nM
- GI50 [14]: 28.4 nM
- TGI [14]: 372 nM
- GI50 [15]: 16.2 nM
- TGI [15]: 82.7 nM
- GI50 [16]: 24 nM
- TGI [16]: 91.2 nM
- GI50 [17]: 32.3 nM
- TGI [17]: 190 nM
- GI50 [18]: 21.7 nM
- TGI [18]: 90.4 nM
- GI50 [19]: 27.6 nM
- TGI [19]: 98.4 nM
- GI50 [20]: 20.4 nM
- TGI [20]: 66.1 nM
- GI50 [59]: 20.6 nM
- TGI [59]: 83.1 nM
- GI50 [21]: 17.8 nM
- TGI [21]: 33.9 nM
- GI50 [22]: 62.5 nM
- TGI [22]: 593 nM
- GI50 [23]: 60.8 nM
- TGI [23]: 32400 nM
- GI50 [24]: 10.8 nM
- TGI [24]: 34.9 nM
- GI50 [25]: 231 nM
- TGI [25]: 1990 nM
- GI50 [26]: 19.8 nM
- TGI [26]: 80.3 nM
- GI50 [27]: 32.1 nM
- TGI [27]: 196 nM
- GI50 [28]: 23.8 nM
- TGI [28]: 282 nM
- GI50 [29]: 30 nM
- TGI [29]: 105 nM
- GI50 [60]: 26.2 nM
- TGI [60]: 58.4 nM
- GI50 [30]: 28.5 nM
- TGI [30]: 87.3 nM
- GI50 [31]: 315 nM
- TGI [31]: 3760 nM
- GI50 [33]: 52.6 nM
- TGI [33]: 637 nM
- GI50 [34]: 472 nM
- TGI [34]: 46400 nM
- GI50 [35]: 23.9 nM
- TGI [35]: 296 nM
- GI50 [36]: 35.9 nM
- TGI [36]: 18100 nM
- GI50 [37]: 47.4 nM
- TGI [37]: 18600 nM
- GI50 [38]: 29.8 nM
- TGI [38]: 231 nM
- GI50 [39]: 54.6 nM
- TGI [39]: 2210 nM
- GI50 [40]: 10.4 nM
- TGI [40]: 22.6 nM
- GI50 [41]: 31.5 nM
- TGI [41]: 3130 nM
- GI50 [42]: 27.2 nM
- TGI [42]: 193 nM
- GI50 [43]: 59.4 nM
- TGI [43]: 23000 nM
- GI50 [44]: 25.5 nM
- TGI [44]: 68.7 nM
- GI50 [45]: 52.1 nM
- TGI [45]: 12900 nM
- GI50 [46]: 23.2 nM
- TGI [46]: 74.1 nM
- GI50 [47]: 3130 nM
- TGI [47]: 23600 nM
- GI50 [48]: 35.9 nM
- TGI [48]: 680 nM
- GI50 [49]: 24.3 nM
- TGI [49]: 70.6 nM
- GI50 [51]: 21.5 nM
- TGI [51]: 71.9 nM
- GI50 [52]: 23 nM
- TGI [52]: 63.1 nM
- GI50 [53]: 25.9 nM
- TGI [53]: 77 nM
- GI50 [54]: 57.8 nM
- TGI [54]: 293 nM
- GI50 [55]: 23.1 nM
- TGI [55]: 59.9 nM
- GI50 [56]: 13.9 nM
- TGI [56]: 46.4 nM
- GI50 [57]: 33.7 nM
- TGI [57]: 98.7 nM
